Data published in patent US20230338349A1, “LOW DOSE REGIMEN AND FORMULATION OF A 5-METHYL-1,2,4-OXADIAZOL-3-YL COMPOUND” (Eli Lilly and Company, priority 2020, published 2023).

Experiment: Plasma concentration of compound of Formula I in the PET occupancy study
Assay type: in vivo
Conditions: human, healthy subjects; for concentration at 0.5 h: approx. 0.5 h; for concentration at 1 h: approx. 1 h; for concentration at 2 h: approx. 2 h; for concentration at 3 h: approx. 3 h; for concentration at 4 h: approx. 4 h; for concentration at 5 h: approx. 5 h; for concentration at 6 h: approx. 6 h; for concentration at 8 h: approx. 8 h; for concentration at 12 h: approx. 12 h; for concentration at 24 h: approx. 24 h
Protocol: Healthy subjects are assigned to 1 of 4 cohorts with 4 subjects in each cohort completing the study. All subjects undergo one baseline PET scan and two post-dose PET scans. A baseline PET scan is performed from up to approximately 14 days before dosing of the compound of Formula I. Overall, each subject receives a single dose of the compound of Formula I and 3 administrations of the [^18F]LSN3316612 PET tracer. Dosing of the compound of Formula I occurs after completion of the baseline PET scan. Scans are conducted at approximately 2 and 24 hours post-dose for the 0.25 mg and 5 mg doses of the compound of Formula I, and at approximately 2 and 24 hours or 30 and 54 hours post-dose for the 1 mg dose of the compound of Formula I. Dynamic PET data of the brain are acquired over 120 min immediately following tracer injection. EO is summarized by the compound of Formula I dose and approximate scanning time.
The compound of Formula I is administered orally in capsule formulation for doses≥3 mg. For doses lower than 3 mg, the compound of Formula I is weighed into a suitable container and dissolved in an appropriate volume of degassed Sprite® or diluent.
Arterial blood samples are collected from all subjects during each PET scan to measure radioactivity to provide input for the PET tracer kinetic analysis. Venous blood samples are collected following dosing of compound of Formula I to measure plasma concentrations of compound of Formula I using a validated liquid chromatography with tandem mass spectrometry assay.

CC(=O)Nc1nc(F)c(CN2CC[C@H](OCc3noc(C)n3)C[C@@H]2C)s1 [compound of Formula I, N-[4-fluoro-5-[[(2S,4S)-2-methyl-4-[(5-methyl-1,2,4-oxadiazol-3-yl)methoxy]-1-piperidyl]methyl]thiazol-2-yl]acetamide] gave a concentration at 0.5 h (single oral dose 0.25 mg) of 0.934 ng/mL, a concentration at 1 h (single oral dose 0.25 mg) of 0.595 ng/mL and a concentration at 2 h (single oral dose 0.25 mg) of 0.373 ng/mL. The concentration at 3 h (single oral dose 0.25 mg) was 0.391 ng/mL, the concentration at 4 h (single oral dose 0.25 mg) was 0.367 ng/mL and the concentration at 5 h (single oral dose 0.25 mg) was 0.39 ng/mL. For the same compound, the concentration at 6 h (single oral dose 0.25 mg) was 0.357 ng/mL, the concentration at 8 h (single oral dose 0.25 mg) was 0.294 ng/mL and the concentration at 12 h (single oral dose 0.25 mg) was 0.213 ng/mL. The concentration at 24 h (single oral dose 0.25 mg) was 0.107 ng/mL, the concentration at 0.5 h (single oral dose 1 mg) was 6.29 ng/mL and the concentration at 1 h (single oral dose 1 mg) was 6.24 ng/mL. For the same compound, the concentration at 2 h (single oral dose 1 mg) was 5.75 ng/mL, the concentration at 3 h (single oral dose 1 mg) was 4.97 ng/mL and the concentration at 4 h (single oral dose 1 mg) was 4.28 ng/mL. The concentration at 5 h (single oral dose 1 mg) was 3.87 ng/mL, the concentration at 6 h (single oral dose 1 mg) was 3.08 ng/mL and the concentration at 8 h (single oral dose 1 mg) was 2.45 ng/mL. For the same compound, the concentration at 12 h (single oral dose 1 mg) was 1.42 ng/mL, the concentration at 24 h (single oral dose 1 mg) was 0.412 ng/mL and the concentration at 30 h (single oral dose 1 mg, approx. 30 h) was 0.222 ng/mL. The concentration at 54 h (single oral dose 1 mg, approx. 54 h) was 0.0735 ng/mL, the concentration at 0.5 h (single oral dose 5 mg) was 32.4 ng/mL and the concentration at 1 h (single oral dose 5 mg) was 30.7 ng/mL. It also gave a concentration at 2 h (single oral dose 5 mg) of 36 ng/mL, a concentration at 3 h (single oral dose 5 mg) of 31.9 ng/mL and a concentration at 4 h (single oral dose 5 mg) of 31.5 ng/mL. For the same compound, the concentration at 5 h (single oral dose 5 mg) was 30.6 ng/mL, the concentration at 6 h (single oral dose 5 mg) was 25.3 ng/mL and the concentration at 8 h (single oral dose 5 mg) was 17.8 ng/mL. It also gave a concentration at 12 h (single oral dose 5 mg) of 12.5 ng/mL and a concentration at 24 h (single oral dose 5 mg) of 3.07 ng/mL.
